Assay results reported in patent publication US11028072B2, “2,4-diamino-6-ethylpyrimidine derivatives with antimalarial activities against Plasmodium falciparum” (National Science and Technology Development Agency, priority 2015, dated 2021).
Like-named read-outs stand apart in the source and are kept apart here.

Legend:
[1] = test system: P. falciparum V1/S (N51I + C59R + S108 + I164L); experiment: microbe, parasite or virus in culture; format: cell-based, Plasmodium falciparum; conditions: Plasmodium falciparum, read-out: IC50 P. falciparum V1/S
From the text: (§1) In Vitro Antimalarial Activites Against P. falciparum and Cytotoxicity Towards Mammalian Cells (Vero Cells)

[2] = test system: P. falciparum TM4/8.2 (wild type); experiment: microbe, parasite or virus in culture; format: cell-based, Plasmodium falciparum; conditions: Plasmodium falciparum, read-out: IC50 P. falciparum TM4/8.2 (WT)
From the text: as §1

[3] = molecular target: T1, Human dihydrofolate reductase (hDHFR) (Homo sapiens, UniProt P00374); experiment: Inhibition of human dihydrofolate reductase (Ki); format: biochemical; conditions: human DHFR; hydrochloride salts
T1 sequence (P00374 1-187): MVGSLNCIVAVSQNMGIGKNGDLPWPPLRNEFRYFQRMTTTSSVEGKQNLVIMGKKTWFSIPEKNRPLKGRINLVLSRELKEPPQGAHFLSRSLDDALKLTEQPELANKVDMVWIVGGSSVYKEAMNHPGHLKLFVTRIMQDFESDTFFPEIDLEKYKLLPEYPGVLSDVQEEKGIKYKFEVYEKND

[4] = molecular target: wild type (WT) pfDHFR (Plasmodium falciparum, UniProt P13922, N108S/R59C); experiment: Inhibition of wild type pfDHFR (Ki); format: biochemical
Chain of wild type (WT) pfDHFR (P13922 whole entry R59C/N108S): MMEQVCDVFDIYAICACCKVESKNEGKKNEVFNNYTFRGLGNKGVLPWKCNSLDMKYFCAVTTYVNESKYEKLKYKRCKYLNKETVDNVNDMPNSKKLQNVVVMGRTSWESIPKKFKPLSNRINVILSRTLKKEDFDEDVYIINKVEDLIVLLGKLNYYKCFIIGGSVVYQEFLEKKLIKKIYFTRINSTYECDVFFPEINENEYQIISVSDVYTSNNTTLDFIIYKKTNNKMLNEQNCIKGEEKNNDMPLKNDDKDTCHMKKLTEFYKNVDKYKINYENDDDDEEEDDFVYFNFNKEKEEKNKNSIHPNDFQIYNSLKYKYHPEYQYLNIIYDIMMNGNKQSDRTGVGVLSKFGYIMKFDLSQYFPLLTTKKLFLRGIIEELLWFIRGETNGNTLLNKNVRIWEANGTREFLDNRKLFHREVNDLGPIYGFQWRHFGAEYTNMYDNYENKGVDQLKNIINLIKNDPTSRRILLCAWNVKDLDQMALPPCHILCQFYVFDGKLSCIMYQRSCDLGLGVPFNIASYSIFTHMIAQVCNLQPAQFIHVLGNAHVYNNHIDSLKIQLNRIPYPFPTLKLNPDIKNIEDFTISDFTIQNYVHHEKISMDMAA
Description: (§2) The synthesized 2,4-diamino-6-ethylpyrimdine derivatives as the hydrochloride salts were tested for the activities against Plasmodium falciparum (P. falciparum) according to the standard methods. These include the inhibition of dihydrofolate reductase (DHFR) enzymes of P. falciparum including, wild type (WT) and quadruple mutants (N51IC59RS108NI164L) (QM). The inhibition was expressed as inhibition constants (Ki) in nano molar (nM).

[5] = in vitro; conditions: African green monkey
From the text: as §1

[6] = molecular target: quadruple mutant N51I + C59R + S108N + I164L (QM) pfDHFR (Plasmodium falciparum, UniProt P13922, I164L/N51I); experiment: Inhibition of quadruple mutant pfDHFR (Ki); format: biochemical
Chain of quadruple mutant N51I + C59R + S108N + I164L (QM) pfDHFR (P13922 whole entry N51I/I164L): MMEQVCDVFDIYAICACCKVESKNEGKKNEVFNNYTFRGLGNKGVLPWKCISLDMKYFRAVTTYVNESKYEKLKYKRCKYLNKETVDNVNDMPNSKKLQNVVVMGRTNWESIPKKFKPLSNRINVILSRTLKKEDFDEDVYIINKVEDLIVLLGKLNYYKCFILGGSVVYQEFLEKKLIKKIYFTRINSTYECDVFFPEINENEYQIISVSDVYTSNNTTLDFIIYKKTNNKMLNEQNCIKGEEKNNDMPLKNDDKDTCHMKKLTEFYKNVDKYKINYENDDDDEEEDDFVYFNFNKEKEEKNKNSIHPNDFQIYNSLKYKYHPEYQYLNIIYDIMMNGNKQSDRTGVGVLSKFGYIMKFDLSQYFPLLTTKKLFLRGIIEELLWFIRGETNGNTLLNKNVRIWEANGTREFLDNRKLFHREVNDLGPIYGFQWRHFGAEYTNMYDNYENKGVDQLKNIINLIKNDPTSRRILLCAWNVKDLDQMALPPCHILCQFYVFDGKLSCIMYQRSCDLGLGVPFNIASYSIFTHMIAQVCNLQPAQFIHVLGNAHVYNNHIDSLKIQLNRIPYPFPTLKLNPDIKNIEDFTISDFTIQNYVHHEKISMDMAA
Description: as §2

[7] = in vitro, quadruple mutant strain V1/S
[8] = in vitro, wild-type strain TM4/8.2

| SMILES | IC50 [1] [nM] | IC50 [2] [nM] | Ki [3] [nM] | Ki [4] [nM] | IC50 [5] [nM] | Ki [6] [nM] | IC50 [1, 7] [nM] | IC50 [2, 8] [nM] | Ki hDHFR [3] | Ki pfDHFR N51I + C59R + S108N + I164L (QM) ([6]; quadruple mutant pfDHFR, hydrochloride salts) |
| --- | --- | --- | --- | --- | --- | --- | --- | --- | --- | --- |
| CCc1nc(N)nc(N)c1-c1cn(Cc2ccc(C(=O)OC)cc2)nn1 [Compound 4] | > 25000 | 5530 ± 840 | 555 ± 20.1 | 3.3 ± 0.36 | > 25000 | 5.2 ± 0.62 | – | – | – | – |
| CCc1nc(N)nc(N)c1-c1cn(Cc2ccc(C(=O)O)cc2)nn1 [Compound 5] | – | – | 196 ± 20.7 | 6.31 ± 0.4 | > 10000 | 7.61 ± 0.66 | > 10000 | 7950 ± 1380 | – | – |
| CCc1nc(N)nc(N)c1-c1cn(Cc2ccc(OC(=O)N(c3ccccc3)c3ccccc3)cc2)nn1 [Compound 6] | – | – | – | 10.3 ± 1.69 | > 25000 | 17.5 ± 2.19 | 4310 ± 930 | 5590 ± 1540 | High | – |
| CCc1nc(N)nc(N)c1-c1cn(CCc2ccccc2)nn1 [Compound 7] | > 50000 | 2620 ± 330 | 3220 ± 86.2 | 2.24 ± 0.1 | > 50000 | 70.1 ± 6.92 | – | – | – | – |
| CCc1nc(N)nc(N)c1-c1cn(CCCc2ccccc2)nn1 [Compound 8] | 32300 ± 3060 | 5580 ± 670 | 3680 ± 480 | 2.82 ± 0.1 | > 50000 | 49.8 ± 1.89 | – | – | – | – |
| CCc1nc(N)nc(N)c1-c1cn(CCOc2ccc(Cl)cc2)nn1 [Compound 9] | 15900 ± 5630 | 2240 ± 600 | 1670 ± 59.5 | 1.14 ± 0.06 | 47400 ± 11600 | 10.8 ± 1.02 | – | – | – | – |
| CCc1nc(N)nc(N)c1-c1cn(CCOc2ccc(C(=O)OC)cc2)nn1 [Compound 10] | – | – | – | 1.01 ± 0.04 | 38900 ± 2140 | 6.96 ± 1.12 | 21000 ± 4490 | 880 ± 360 | High | – |
| CCc1nc(N)nc(N)c1-c1cn(CCCOc2ccc(Cl)cc2)nn1 [Compound 11] | – | – | 1120 ± 91.4 | 1.12 ± 0.08 | 48700 ± 13600 | 32.1 ± 8.31 | > 50000 | 2420 ± 550 | – | – |
| CCc1nc(N)nc(N)c1-c1cn(CCCOc2ccc(C(=O)OC)cc2)nn1 [Compound 12] | > 50000 | 970 ± 400 | 875 ± 27.9 | 0.82 ± 0.06 | 47600 ± 6270 | 34 ± 5.51 | – | – | – | – |
| CCc1nc(N)nc(N)c1OCc1cn(-c2ccccc2)nn1 [Compound 13] | – | – | – | 3.27 ± 0.28 | > 25000 | 377 ± 20.5 | > 25000 | 5730 ± 350 | High | – |
| CCc1nc(N)nc(N)c1OCc1cn(-c2cccc([N+](=O)[O-])c2)nn1 [Compound 14] | – | – | > 500000 | 8.62 ± 1.15 | > 50000 | 237 ± 41.7 | 4430 ± 1130 | 3420 ± 610 | – | – |
| CCc1nc(N)nc(N)c1OCc1cn(-c2cccc(C(=O)OC)c2)nn1 [Compound 15] | – | – | – | 1.85 ± 0.36 | > 50000 | 208 ± 16.6 | 17600 ± 1500 | 730 ± 230 | High | – |
| CCc1nc(N)nc(N)c1OCc1cn(-c2ccc([N+](=O)[O-])cc2)nn1 [Compound 17] | – | – | > 500000 | 42.7 ± 0.99 | > 50000 | 1990 ± 318 | 14900 ± 3820 | 4250 ± 1370 | – | – |
| CCc1nc(N)nc(N)c1OCc1cn(-c2ccc(C(=O)OC)cc2)nn1 [Compound 18] | – | – | – | 6.54 ± 1.25 | > 50000 | 833 ± 45 | 13600 ± 3220 | 10500 ± 3100 | High | – |
| CCc1nc(N)nc(N)c1OCc1cn(-c2ccc(C(=O)O)cc2)nn1 [Compound 19] | – | – | – | 7.79 ± 1.33 | > 10000 | 671 ± 27.2 | > 10000 | > 10000 | High | – |
| CCc1nc(N)nc(N)c1OCCc1cn(-c2cccc(C(=O)O)c2)nn1 [Compound 20] | – | – | 80.2 ± 3.28 | 0.39 ± 0.06 | > 25000 | 1.73 ± 0.18 | 1740 ± 510 | 670 ± 340 | – | – |

| SMILES | IC50 [1] [nM] | IC50 [2] [nM] | Ki [3] [nM] | Ki [4] [nM] | IC50 [5] [nM] | Ki [6] [nM] | IC50 [1, 7] [nM] | IC50 [2, 8] [nM] | Ki hDHFR [3] | Ki pfDHFR N51I + C59R + S108N + I164L (QM) ([6]; quadruple mutant pfDHFR, hydrochloride salts) |
| --- | --- | --- | --- | --- | --- | --- | --- | --- | --- | --- |
| CCc1nc(N)nc(N)c1OCCc1cn(-c2ccc(C(=O)OC)cc2)nn1 [Compound 21] | – | – | 1060 ± 89.5 | 0.48 ± 0.1 | > 25000 | 8.56 ± 1.46 | > 25000 | 490 ± 70 | – | – |
| CCc1nc(N)nc(N)c1OCCc1cn(-c2ccc(C(=O)O)cc2)nn1 [Compound 22] | – | – | – | 0.26 ± 0.04 | > 50000 | 4.64 ± 0.6 | > 50000 | 620 ± 180 | High | – |
| CCc1nc(N)nc(N)c1OCCCc1cn(-c2cccc(C(=O)O)c2)nn1 [Compound 23] | – | – | 22.7 ± 2.76 | 0.25 ± 0.02 | > 25000 | 0.42 ± 0.06 | 320 ± 120 | 6.4 ± 0.5 | – | – |
| CCc1nc(N)nc(N)c1OCCCc1cn(-c2ccc(C(=O)OC)cc2)nn1 [Compound 24] | > 2000 | 55 ± 6 | 19 ± 1.92 | 0.15 ± 0.02 | > 2000 | 1.9 ± 0.08 | – | – | – | – |
| CCc1nc(N)nc(N)c1OCCCc1cn(-c2ccc(C(=O)O)cc2)nn1 [Compound 25] | 4650 ± 120 | 36 ± 10 | 44.8 ± 1.92 | 0.35 ± 0.04 | 6400 ± 1080 | 3.52 ± 0.73 | – | – | – | – |
| CCc1nc(N)nc(N)c1OCc1cn(Cc2cccc(C(=O)O)c2)nn1 [Compound 26] | – | – | – | 19.5 ± 1.06 | > 25000 | 388 ± 26.2 | > 25000 | > 25000 | High | – |
| CCc1nc(N)nc(N)c1OCc1cn(Cc2cc(F)c(O)c(F)c2)nn1 [Compound 27] | – | – | – | 9.41 ± 0.85 | > 50000 | 285 ± 14.1 | > 50000 | 16100 ± 6020 | High | – |
| CCc1nc(N)nc(N)c1OCc1cn(Cc2ccc(O)cc2)nn1 [Compound 28] | – | – | – | 53.7 ± 5.6 | > 1000 | – | > 1000 | > 1000 | High | High |
| CCc1nc(N)nc(N)c1OCc1cn(Cc2ccc(C(=O)O)cc2)nn1 [Compound 29] | – | – | – | 14.5 ± 1.62 | > 25000 | 477 ± 32.3 | > 25000 | > 25000 | High | – |
| CCc1nc(N)nc(N)c1OCCc1cn(Cc2ccc(O)cc2)nn1 [Compound 30] | – | – | – | 8.86 ± 0.8 | > 50000 | 756 ± 62.6 | > 50000 | 12400 ± 4710 | High | – |
| CCc1nc(N)nc(N)c1OCCCc1cn(Cc2ccc(C(=O)O)cc2)nn1 [Compound 32] | – | – | 54.3 ± 1.05 | 0.36 ± 0.02 | > 50000 | 4.72 ± 0.77 | 3750 ± 430 | 87 ± 30 | – | – |
| CCc1nc(N)nc(N)c1OCc1cc(-c2ccccc2)no1 [Compound 33] | – | – | 1480 ± 68.9 | 0.51 ± 0.08 | > 25000 | 38.1 ± 6.27 | 15700 ± 4480 | 670 ± 130 | – | – |
| CCc1nc(N)nc(N)c1OCc1cc(-c2ccc(F)cc2)no1 [Compound 34] | 18900 ± 4440 | 1600 ± 790 | 1080 ± 93.7 | 1.01 ± 0.05 | > 25000 | 77.6 ± 14.8 | – | – | – | – |
| CCc1nc(N)nc(N)c1OCc1cc(-c2ccc(Cl)cc2)no1 [Compound 35] | 20900 ± 4080 | 2500 ± 340 | 1170 ± 130 | 0.95 ± 0.02 | > 25000 | 65 ± 11.9 | – | – | – | – |
| CCc1nc(N)nc(N)c1OCc1cc(-c2ccc(Br)cc2)no1 [Compound 36] | – | – | 1350 ± 104 | 1.03 ± 0.2 | > 25000 | 64.6 ± 1.16 | 17500 ± 2960 | 2860 ± 560 | – | – |
